The target of one assay is PNPase (Rattus norvegicus, UniProt P85973). To be noted: single bolus 5 mg/kg.
A further assay relates to sciatic nerve-crush rats. The assay can be described thus: Von Frey sensory testing after sciatic nerve crush. The class given is in vivo, rat. Conditions: hindpaw footpad, day 2 and day 5 post injury, 8-AG 5 mg/kg/day in drinking water. As to the method:
Animals. This study employed female Harlan Sprague Dawley (HSD) rats (3-4 mo; Envigo, Indianapolis, IN) and were divided into the following groups: 1) Control, 2) Sciatic nerve crush (day 0, sacrifice on day 6); 3) 8-aminoguanine (8-AG; 5 mg/kg/day in drinking water; beginning 2 weeks prior to nerve crush and continuing until sacrifice (day 6)). The dose of 8-AG is based on the work above and published experiments. Further, the water consumption/day was tracked. […] All tissues (hindpaw epidermis) were removed from isoflurane anesthetized rats and the tissue was used for various experimental approaches as described below. At the end of tissue removal, animals were sacrificed by thoracotomy.
Von Frey sensory testing. Control, sciatic nerve crush (one of the most common models of peripheral nerve injury in rodents) and 8-AG-treated sciatic nerve-crush rats were placed in an elevated chamber on a wire mesh floor and after acclimatization, calibrated von Frey microfilaments were applied to determine paw withdrawal threshold (PWT, in grams). Briefly, microfilaments (Stoelting Corp, USA) were applied with different forces perpendicularly to the plantar surface of both ipsilateral and contralateral hindpaw by increasing and decreasing stimulus intensity. […]

For the next assay, the system named is mitofusin 2 (MFN2). In words: MFN2 expression in CYP-CIPN rat hindpaw epidermis, Western immunoblotting. Conditions: 8-AG 5 mg/kg/day in drinking water. It is filed as in vivo. The method, then:
Animals. This study employed female Harlan Sprague Dawley (HSD) rats (3-4 mo; Envigo, Indianapolis, IN) and were divided into the following groups: 1) Control, 2) Cyclophosphamide (CYP, 75 mg/kg i.p. in saline vehicle; administered on days 0, 3 and 6); 3) 8-aminoguanine (8-AG; 5 mg/kg/day in drinking water; beginning 2 weeks prior to CYP and continuing until sacrifice (day 8)). The dose of 8-AG is based on our preliminary and published experiments. […] The investigation conforms to the Guide for the Care and Use of Laboratory Animals published by the US National Institutes of Health (NIH Publication No. 85-23, revised 1996). […]
Western immunoblotting: Following the testing paradigms, rats were deeply anesthetized and tissues (e.g., epidermis, peripheral sciatic nerves, spinal cord segments (L3-L5) and dorsal root ganglia (L3-L5) were removed, and a portion of each preparation was homogenized using Lysing Matrix D in a FASTPREP® 24 instrument (MP Biomedicals, Solon, OH) in HBSS [5 mM KCl, 0.3 mM KH2PO4, 138 mM NaCl, 4 mM NaHO3, 0.3 mM Na2HCO3, 0.3 mM Na2HPO4, 5.6 mM glucose and 10 mM Hepes, pH 7.4 containing complete protease inhibitor cocktail (1 tablet/10 ml, Roche, Indianapolis, IN)] and phosphatase inhibitor cocktail (Sigma, 1:100). […] The protein concentrations of the supernatants were determined using the Pierce BCA protein assay (Thermo Scientific, Rockford, IL). […]
For orientation: Immunoblotting shows a protein as a band on a membrane.

Each structure is given as a SMILES string. Entries after “also recorded” stand apart in the source; their conditions may differ.

PNPase, sequence (P85973 whole entry): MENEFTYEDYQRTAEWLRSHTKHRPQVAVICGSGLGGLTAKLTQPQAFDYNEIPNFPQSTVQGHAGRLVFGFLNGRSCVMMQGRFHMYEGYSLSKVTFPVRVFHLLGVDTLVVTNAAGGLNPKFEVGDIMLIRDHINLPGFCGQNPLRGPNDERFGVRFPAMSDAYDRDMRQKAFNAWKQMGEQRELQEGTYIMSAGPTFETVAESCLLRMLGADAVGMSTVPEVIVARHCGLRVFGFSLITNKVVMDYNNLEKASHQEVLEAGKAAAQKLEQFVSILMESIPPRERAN
Protocol for PNPase: Rats were anesthetized with urethane (Sigma-Aldrich, St. Louis, MO) at 1.2 g/kg. A continuous infusion of 0.9% sterile saline at 25 ul/min was established via a catheter inserted into the jugular vein. A second catheter to the carotid artery was established in order to collect blood samples (200 μl) which were drawn into a 1 ml syringe prefilled with 50 U heparin. Blood samples were centrifuged at 1300 g for 10 minutes and supernatant (plasma) was then quickly frozen on dry ice and stored at −80° C. until assay. Urine samples were collected by a urethral catheter, centrifuged at 416 g for 10 minutes to remove sediment, and stored as above. Baseline blood samples and urine samples were collected followed by a single bolus of 8-aminoguanine (8-AG, 5 mg/kg) administered through the jugular catheter. Blood samples were collected after 15, 30, 60, 120 and 240 minutes. Urine samples were collected at 1, 2, 4 and 6 hours.
Purines in urine were measured by mass spectrometry using multiple reaction monitoring. Blood samples were diluted 1 to 30 with water, and heavy isotope internal standards were added to each sample. Purines were separated by reversed-phase ultra-performance liquid chromatography (Waters UPLC BEH C18 column, 1.7 μm beads; 2.1×150 mm; Milford, MA) and quantified by multiple reaction monitoring using a triple quadrupole mass spectrometer (TSQ Quantum-Ultra; ThermoFisher Scientific, San Jose, CA) with a heated electrospray ionization source. The mobile phase was a linear gradient flow rate (300 uL/min) of 1% acetic acid in water (pH, 3; mobile phase A) and 100% methanol (mobile phase B), and was delivered with a Waters Acquity ultra-performance liquid chromatographic system. The gradient (A/B) settings were: from 0 to 2 minutes, 99.6%/0.4%; from 2 to 3 minutes, to 98.0%/2.0%; from 3 to 4 minutes, to 85.0%/15.0%; from 4 to 6.5 minutes, to 99.6%/0.4%. The instrument parameters were: sample tray temperature, 10° C.; column temperature, 50° C.; ion spray voltage, 4.0 kilovolts; ion transfer tube temperature, 350° C.; source vaporization temperature, 320° C.; Q2 CID gas, argon at 1.5 mTorr; sheath gas, nitrogen at 60 psi; auxillary gas, nitrogen at 35 psi; Q1/Q3 width, 0.7/0.7 units full-width half-maximum; scan width, 0.6 units; scan time, 0.01 seconds. The following transitions (multiple reaction monitoring) were obtained: guanosine (284→152; RT=2.94 min); ^13C10, ^15N5-guanosine (299→162, RT=2.94 min); guanine (152→135; RT=1.48 min); ^13C2, ^15N-guanine (155→138, RT=1.48 min); hypoxanthine (137→119 m/z, RT=1.86 min); ^13C5-hypoxanthine (142→124 m/z, RT=1.86 min); aminoguanine (167→150 m/z, RT=1.50 min); ^13C2^15N-aminoguanine (170→153 m/z, RT=1.50 min).

As for `Nc1nc2[nH]c(N)nc2c(=O)[nH]1` [8-AG, 8-Aminoguanine], on PNPase (rat urine), the “duration of sustained reduction in the ratio of urine guanosine to urine guanine” value was more than 6 h, the “duration of sustained reduction in urine levels of hypoxanthine” value was more than 6 h and the “hypoxanthine levels in the urine” value is recorded as “decrease”. For the same molecule, the “duration of sustained inhibition of PNPase following a bolus dose” value at PNPase (rat) was more than 6 h. In addition, in the assay with sciatic nerve-crush rats, the “effect on injury-induced increase in sensitivity to mechanical stimuli (paw withdrawal threshold)” value is listed as “restored to control values; also recorded: normalized”. Moreover, the “effect on injury-induced increase in sensitivity to mechanical stimuli (paw withdrawal threshold)” value in the assay on sciatic nerve-crush rats (listed as 8-Aminoguanine) is given as “normalized”. For the same molecule, in the assay on mitofusin 2 (MFN2), the “effect on CYP-induced decrease in MFN2 expression” value is on record as “reversed”.

The record behind these values is US20250127787A1, “METHODS FOR TREATING PERIPHERAL NEUROPATHY” (University of Pittsburgh - Of the Commonwealth System of …, priority 2021, published 2025).
